Results: ChEMBL document CHEMBL3994677, “Discovery of GSK2193874: An Orally Active, Potent, and Selective Blocker of Transient Receptor Potential Vanilloid 4” (ACS Med Chem Lett, 2017)
Blank lines part the entries; values can stand above or below the compound they belong to. The source made the active and inactive calls. The calls are words filed in the database; no cut-off is given here.

Tests used:
[1] = molecular target: T1, Transient receptor potential cation channel subfamily V member 4 (Homo sapiens, UniProt Q9HBA0); assay: Antagonist activity at human TRPV4 expressed in HEK293 cells assessed as inhibition of GSK634775A-induced calcium influx preincubated for 10 mins followed by GSK634775A addition by […] dye based FLIPR assay; assay type: cell-based
T1 sequence (Q9HBA0 whole entry): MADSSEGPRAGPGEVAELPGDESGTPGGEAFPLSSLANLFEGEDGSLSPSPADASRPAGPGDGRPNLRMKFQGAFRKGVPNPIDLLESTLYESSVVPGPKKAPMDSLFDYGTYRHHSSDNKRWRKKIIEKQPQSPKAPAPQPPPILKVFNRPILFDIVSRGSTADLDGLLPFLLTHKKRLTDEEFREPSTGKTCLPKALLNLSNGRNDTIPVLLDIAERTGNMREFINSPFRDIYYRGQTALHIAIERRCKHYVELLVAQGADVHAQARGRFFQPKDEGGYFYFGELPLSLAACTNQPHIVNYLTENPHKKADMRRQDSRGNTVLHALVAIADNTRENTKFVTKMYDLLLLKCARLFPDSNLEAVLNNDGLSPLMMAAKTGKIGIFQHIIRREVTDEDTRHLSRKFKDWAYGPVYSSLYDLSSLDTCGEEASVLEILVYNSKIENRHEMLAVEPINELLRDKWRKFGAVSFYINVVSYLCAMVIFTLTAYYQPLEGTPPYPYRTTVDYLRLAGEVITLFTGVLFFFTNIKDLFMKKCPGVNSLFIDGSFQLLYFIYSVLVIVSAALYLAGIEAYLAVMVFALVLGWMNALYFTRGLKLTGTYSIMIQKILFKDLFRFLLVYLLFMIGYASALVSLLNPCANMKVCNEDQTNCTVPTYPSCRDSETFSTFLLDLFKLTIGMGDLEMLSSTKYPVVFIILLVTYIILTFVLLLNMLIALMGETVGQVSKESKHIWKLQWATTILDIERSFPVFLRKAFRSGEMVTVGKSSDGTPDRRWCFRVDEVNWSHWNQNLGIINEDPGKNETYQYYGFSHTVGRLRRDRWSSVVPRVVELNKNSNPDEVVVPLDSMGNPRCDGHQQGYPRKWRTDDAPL

[2] = molecular target: T2, Transient receptor potential cation channel subfamily V member 4 (Rattus norvegicus, UniProt Q9ERZ8); assay: Antagonist activity at rat TRPV4 expressed in HEK293 cells assessed as inhibition of GSK634775A-induced calcium influx preincubated for 10 mins followed by GSK634775A addition by […] dye based FLIPR assay; assay type: cell-based
T2 sequence (Q9ERZ8 whole entry): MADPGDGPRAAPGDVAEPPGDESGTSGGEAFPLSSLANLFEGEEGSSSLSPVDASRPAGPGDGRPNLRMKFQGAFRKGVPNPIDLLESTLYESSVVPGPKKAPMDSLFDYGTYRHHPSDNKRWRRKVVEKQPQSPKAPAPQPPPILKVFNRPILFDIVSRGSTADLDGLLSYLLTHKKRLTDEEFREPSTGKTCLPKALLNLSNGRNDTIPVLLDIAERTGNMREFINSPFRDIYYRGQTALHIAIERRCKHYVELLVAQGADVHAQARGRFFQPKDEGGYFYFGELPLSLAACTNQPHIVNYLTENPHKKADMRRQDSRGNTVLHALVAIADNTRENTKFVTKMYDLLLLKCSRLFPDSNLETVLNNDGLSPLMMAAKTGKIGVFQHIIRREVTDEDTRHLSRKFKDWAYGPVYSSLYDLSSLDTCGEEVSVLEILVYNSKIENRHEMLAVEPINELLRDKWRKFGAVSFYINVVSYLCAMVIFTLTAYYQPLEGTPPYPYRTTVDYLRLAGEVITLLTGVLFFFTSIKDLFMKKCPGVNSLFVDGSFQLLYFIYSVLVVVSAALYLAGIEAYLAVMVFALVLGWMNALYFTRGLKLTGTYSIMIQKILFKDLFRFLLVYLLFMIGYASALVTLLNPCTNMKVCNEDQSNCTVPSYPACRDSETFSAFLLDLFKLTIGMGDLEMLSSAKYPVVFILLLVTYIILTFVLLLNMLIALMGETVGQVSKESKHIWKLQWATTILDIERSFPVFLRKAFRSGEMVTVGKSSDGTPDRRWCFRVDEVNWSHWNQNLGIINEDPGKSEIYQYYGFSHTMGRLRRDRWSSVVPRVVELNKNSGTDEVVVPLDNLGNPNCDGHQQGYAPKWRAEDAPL

[3] = Clearance in Sprague-Dawley rat; assay type: ADME; conditions: in vivo
Neuromedin-K receptor = Neuromedin-K receptor (Homo sapiens, UniProt P29371); assay: Inhibition of NK3 receptor (unknown origin) by FLIPR assay
Chain of Neuromedin-K receptor (P29371 whole entry): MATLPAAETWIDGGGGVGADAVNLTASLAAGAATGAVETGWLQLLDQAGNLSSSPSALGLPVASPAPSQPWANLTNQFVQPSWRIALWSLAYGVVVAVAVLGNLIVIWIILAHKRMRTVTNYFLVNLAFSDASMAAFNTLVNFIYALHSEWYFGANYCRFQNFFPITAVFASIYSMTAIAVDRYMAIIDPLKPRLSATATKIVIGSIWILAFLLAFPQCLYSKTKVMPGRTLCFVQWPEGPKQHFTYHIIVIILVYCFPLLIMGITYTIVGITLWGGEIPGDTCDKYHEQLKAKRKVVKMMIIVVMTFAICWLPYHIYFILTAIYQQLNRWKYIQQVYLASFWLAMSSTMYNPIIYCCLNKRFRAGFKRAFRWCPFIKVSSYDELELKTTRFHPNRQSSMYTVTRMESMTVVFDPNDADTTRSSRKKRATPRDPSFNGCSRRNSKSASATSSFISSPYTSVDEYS

Substance-K receptor = Substance-K receptor (Homo sapiens, UniProt P21452); assay: Inhibition of NK2 receptor (unknown origin) by FLIPR assay
Chain of Substance-K receptor (P21452 whole entry): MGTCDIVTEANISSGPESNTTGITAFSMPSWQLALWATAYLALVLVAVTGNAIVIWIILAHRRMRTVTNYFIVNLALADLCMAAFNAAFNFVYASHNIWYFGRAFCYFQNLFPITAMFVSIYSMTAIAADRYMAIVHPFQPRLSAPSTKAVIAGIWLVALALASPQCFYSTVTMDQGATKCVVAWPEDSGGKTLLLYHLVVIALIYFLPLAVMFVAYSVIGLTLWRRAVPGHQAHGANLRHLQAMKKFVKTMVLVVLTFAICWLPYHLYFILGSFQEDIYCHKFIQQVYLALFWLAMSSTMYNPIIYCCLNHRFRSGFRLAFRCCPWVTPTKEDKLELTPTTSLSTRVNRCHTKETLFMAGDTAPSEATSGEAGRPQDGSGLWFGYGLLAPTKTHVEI

[4] = Half life in po dosed rat; assay type: ADME, organism-based; conditions: in vivo
[5] = molecular target: Nuclear receptor subfamily 1 group I member 2 (Homo sapiens, UniProt O75469); assay: Activation of PXR (unknown origin); assay type: ADME; conditions: human
[6] = Oral bioavailability in rat; assay type: ADME, organism-based; conditions: in vivo
[7] = molecular target: Short transient receptor potential channel 3 (Homo sapiens, UniProt Q13507); assay: Inhibition of TRPC3 (unknown origin)
[8] = Clearance in iv dosed rat; assay type: ADME, organism-based; conditions: in vivo
[9] = molecular target: Transient receptor potential cation channel subfamily V member 1 (Homo sapiens, UniProt Q8NER1); assay: Inhibition of TRPV1 (unknown origin)
[10] = Oral bioavailability in dog; assay type: ADME, organism-based, Canis lupus familiaris; conditions: in vivo
[11] = molecular target: Transient receptor potential cation channel subfamily A member 1 (Homo sapiens, UniProt O75762); assay: Inhibition of TRPA1 (unknown origin)
[12] = molecular target: T3, Voltage-dependent L-type calcium channel subunit alpha-1C (Cavia porcellus, UniProt O35505); assay: Inhibition of Cav1.2 in guinea pig ventricular myocytes assessed as decrease in current amplitude at 0.1 Hz by patch clamp method; assay type: cell-based
T3 sequence (O35505 whole entry): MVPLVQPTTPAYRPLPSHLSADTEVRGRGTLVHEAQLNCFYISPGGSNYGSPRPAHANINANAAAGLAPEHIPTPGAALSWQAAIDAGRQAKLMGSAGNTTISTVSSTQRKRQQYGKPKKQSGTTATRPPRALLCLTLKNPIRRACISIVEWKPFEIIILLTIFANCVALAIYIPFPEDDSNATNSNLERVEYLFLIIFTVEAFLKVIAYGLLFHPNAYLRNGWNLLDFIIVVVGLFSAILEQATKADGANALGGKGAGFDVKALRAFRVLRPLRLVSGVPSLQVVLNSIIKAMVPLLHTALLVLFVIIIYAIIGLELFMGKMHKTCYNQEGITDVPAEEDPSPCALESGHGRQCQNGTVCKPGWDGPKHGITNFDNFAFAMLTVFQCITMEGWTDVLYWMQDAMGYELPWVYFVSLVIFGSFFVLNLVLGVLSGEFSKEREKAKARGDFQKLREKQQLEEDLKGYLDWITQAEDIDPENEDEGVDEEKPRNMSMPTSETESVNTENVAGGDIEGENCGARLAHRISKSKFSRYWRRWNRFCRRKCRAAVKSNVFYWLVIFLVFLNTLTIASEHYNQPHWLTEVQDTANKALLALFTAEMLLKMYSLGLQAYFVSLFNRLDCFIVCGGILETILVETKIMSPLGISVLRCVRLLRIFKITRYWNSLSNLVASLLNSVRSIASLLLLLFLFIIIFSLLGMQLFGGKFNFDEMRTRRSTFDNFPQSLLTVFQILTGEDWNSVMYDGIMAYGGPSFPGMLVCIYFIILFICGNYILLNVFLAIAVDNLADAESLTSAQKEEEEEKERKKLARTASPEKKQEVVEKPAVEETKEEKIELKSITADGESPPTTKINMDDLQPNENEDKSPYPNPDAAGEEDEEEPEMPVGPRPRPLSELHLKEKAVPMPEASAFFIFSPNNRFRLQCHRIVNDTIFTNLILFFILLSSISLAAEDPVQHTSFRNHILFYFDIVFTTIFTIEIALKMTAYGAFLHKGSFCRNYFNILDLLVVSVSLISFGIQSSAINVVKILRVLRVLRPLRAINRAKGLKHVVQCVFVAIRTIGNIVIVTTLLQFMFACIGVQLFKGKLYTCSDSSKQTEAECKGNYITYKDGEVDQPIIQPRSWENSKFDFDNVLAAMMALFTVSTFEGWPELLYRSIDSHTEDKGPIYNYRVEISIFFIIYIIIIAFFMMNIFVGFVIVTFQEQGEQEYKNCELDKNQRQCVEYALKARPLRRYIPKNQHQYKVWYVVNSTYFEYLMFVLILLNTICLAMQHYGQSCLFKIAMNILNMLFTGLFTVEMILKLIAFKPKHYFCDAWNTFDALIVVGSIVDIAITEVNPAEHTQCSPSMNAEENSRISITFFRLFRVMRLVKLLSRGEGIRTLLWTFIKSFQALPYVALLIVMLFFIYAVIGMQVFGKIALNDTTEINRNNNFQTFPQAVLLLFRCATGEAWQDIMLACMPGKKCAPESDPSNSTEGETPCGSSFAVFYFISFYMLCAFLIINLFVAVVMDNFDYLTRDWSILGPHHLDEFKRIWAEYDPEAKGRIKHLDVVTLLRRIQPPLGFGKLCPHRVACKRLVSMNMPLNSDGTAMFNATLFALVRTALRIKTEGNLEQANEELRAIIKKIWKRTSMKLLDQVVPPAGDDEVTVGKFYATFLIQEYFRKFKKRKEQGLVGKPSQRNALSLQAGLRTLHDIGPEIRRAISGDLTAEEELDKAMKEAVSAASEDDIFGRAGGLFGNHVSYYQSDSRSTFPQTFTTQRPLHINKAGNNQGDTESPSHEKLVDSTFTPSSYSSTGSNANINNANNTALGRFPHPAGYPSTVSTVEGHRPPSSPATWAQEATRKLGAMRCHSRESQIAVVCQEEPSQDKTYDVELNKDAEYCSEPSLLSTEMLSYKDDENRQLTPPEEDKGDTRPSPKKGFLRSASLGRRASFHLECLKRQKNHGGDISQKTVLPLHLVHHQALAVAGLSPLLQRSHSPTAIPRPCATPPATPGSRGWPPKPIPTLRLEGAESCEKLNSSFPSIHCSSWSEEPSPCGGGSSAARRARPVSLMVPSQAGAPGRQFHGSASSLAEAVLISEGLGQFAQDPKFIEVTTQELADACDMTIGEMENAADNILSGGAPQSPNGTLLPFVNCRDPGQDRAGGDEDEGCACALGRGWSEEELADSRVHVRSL

[13] = molecular target: T3, Voltage-dependent L-type calcium channel subunit alpha-1C; assay: Inhibition of Cav1.2 in guinea pig ventricular myocytes assessed as decrease in current amplitude at 2 Hz by patch clamp method; assay type: cell-based
[14] = molecular target: Short transient receptor potential channel 6 (Homo sapiens, UniProt Q9Y210); assay: Inhibition of TRPC6 (unknown origin)
[15] = molecular target: Transient receptor potential cation channel subfamily M member 8 (Homo sapiens, UniProt Q7Z2W7); assay: Inhibition of TRPM8 (unknown origin)
[16] = Half life in po dosed dog; assay type: ADME, organism-based, Canis lupus familiaris; conditions: in vivo
[17] = Clearance in iv dosed dog; assay type: ADME, organism-based, Canis lupus familiaris; conditions: in vivo
[18] = molecular target: T2, Transient receptor potential cation channel subfamily V member 4; assay: Antagonist activity at rat TRPV4 expressed in HEK293 cells assessed as inhibition of 4alpha-PDD-induced current at holding potential of -40 mV by Whole cell patch-clamp method; assay type: cell-based
[19] = molecular target: T1, Transient receptor potential cation channel subfamily V member 4
Description: Antagonist activity at human TRPV4 expressed in HEK293 cells assessed as inhibition of 4alpha-PDD-induced current at holding potential of -40 mV by Whole cell patch-clamp method

[20] = molecular target: Transient receptor potential cation channel subfamily V member 4 (Mus musculus, UniProt Q9EPK8); assay: Antagonist activity at mouse TRPV4 expressed in HEK293 cells assessed as inhibition of 4alpha-PDD-induced current at holding potential of -40 mV by Whole cell patch-clamp method; assay type: cell-based
Rattus norvegicus = assay: Dose normalized AUC in po dosed Sprague-Dawley rat; assay type: ADME, organism-based; conditions: in vivo
Canis familiaris [21] = assay: Unbound plasma concentration in Beagle dog at 1 mg/kg, iv administered as infusion; conditions: in vivo
Mus musculus [22] = assay: Toxicity in TRPV4 knockout Balb/c mouse assessed as reduction in BP at 30 mg/kg, iv administered as infusion; assay type: organism-based; conditions: in vivo
Aorta = assay: Toxicity in mouse isolated aorta assessed as effect on contractility; assay type: tissue-based; conditions: in vivo
[23] = molecular target: Voltage-dependent T-type calcium channel subunit alpha-1H (Homo sapiens) (UniProt O95180); assay: Inhibition of Cav3.2 (unknown origin)
Canis familiaris [24] = assay: Toxicity in Beagle dog assessed as reduction in heart rate at 3 mg/kg, iv administered as infusion; assay type: organism-based, Canis lupus familiaris; conditions: in vivo
Mus musculus [25] = assay: Toxicity in TRPV4 knockout Balb/c mouse assessed as reduction in heart rate at 30 mg/kg, iv administered as infusion; assay type: organism-based; conditions: in vivo
[26] = Toxicity in mouse isolated right atria assessed as effect on contractility; parameters: species or system Right cardiac atrium; conditions: in vivo
Canis familiaris [27] = assay: Unbound plasma concentration in Beagle dog at 3 mg/kg, iv administered as infusion; conditions: in vivo
[28] = molecular target: Voltage-dependent L-type calcium channel subunit alpha-1C (Homo sapiens, UniProt Q13936); assay: Inhibition of Cav1.2 (unknown origin) by patchXpress electrophysiology assay
[29] = Cmax in Beagle dog at 3 mg/kg, iv administered as infusion; assay type: ADME, organism-based, Canis lupus familiaris; parameters: dose 3 mg/kg, route intravenous; conditions: in vivo
[30] = Cmax in Beagle dog at 1 mg/kg, iv administered as infusion; assay type: ADME, organism-based, Canis lupus familiaris; parameters: dose 1 mg/kg, route intravenous; conditions: in vivo
[31] = molecular target: Voltage-gated inwardly rectifying potassium channel KCNH2 (Homo sapiens, UniProt Q12809); assay: Inhibition of human ERG by patchXpress electrophysiology assay
Plasma = assay: Terminal plasma concentration in TRPV4 knockout Balb/c mouse at 30 mg/kg, iv administered as infusion; assay type: ADME, organism-based; conditions: in vivo, read-out: Cp(T)
Canis familiaris [32] = assay: Toxicity in Beagle dog assessed as QTc prolongation at 1 to 3 mg/kg, iv administered as infusion; assay type: organism-based, Canis lupus familiaris; conditions: in vivo
Canis familiaris [33] = assay: Toxicity in Beagle dog assessed as hemodynamic effect at 1 mg/kg, iv administered as infusion; assay type: organism-based, Canis lupus familiaris; conditions: in vivo
[34] = molecular target: Voltage-dependent N-type calcium channel subunit alpha-1B (Homo sapiens) (UniProt Q00975); assay: Inhibition of Cav2.2 (unknown origin)
[35] = molecular target: Sodium channel protein type 5 subunit alpha (Homo sapiens, UniProt Q14524); assay: Inhibition of Nav1.5 (unknown origin) by ionworks quattro electrophysiology assay
Canis familiaris [36] = assay: Toxicity in Beagle dog assessed as effect on LV function at 3 mg/kg, iv administered as infusion; assay type: organism-based, Canis lupus familiaris; conditions: in vivo
Canis familiaris [37] = assay: Toxicity in Beagle dog assessed as effect on cardiac output at 3 mg/kg, iv administered as infusion; assay type: organism-based, Canis lupus familiaris; conditions: in vivo
[38] = Cardiotoxicity in rabbit ventricular wedge; assay type: toxicity, Oryctolagus cuniculus
Canis familiaris [39] = assay: Toxicity in Beagle dog assessed as reduction in BP at 3 mg/kg, iv administered as infusion; assay type: organism-based, Canis lupus familiaris; conditions: in vivo
[40] = Oral bioavailability in Sprague-Dawley rat; assay type: ADME, organism-based; conditions: in vivo

IC50 [1]: 130 nM
IC50 [2]: 25 nM
Compound: CC(C)[C@H](NC(=O)c1c(CN2CCC(N3CCCCC3)CC2)c(-c2cccc(C(F)(F)F)c2)nc2ccccc12)c1ccccc1

IC50 [1]: 2000 nM
clearance [3]: 52 mL/min/kg
IC50 (Neuromedin-K receptor): 8 nM
IC50 (Substance-K receptor): 100 nM
IC50 [2]: 320 nM
Compound: C[C@H](NC(=O)c1c(CN2CCC(N3CCCCC3)CC2)c(-c2ccccc2)nc2ccccc12)c1ccccc1

IC50 [1]: 1000 nM
IC50 [2]: 40 nM
Compound: CC(C)(NC(=O)c1c(CN2CCC(N3CCCCC3)CC2)c(-c2cccc(C(F)(F)F)c2)nc2ccccc12)c1ccccc1

AUC/dose (Rattus norvegicus): 0.8 µg·h/mL/mg/kg
unbound plasma concentration (Canis familiaris [21]): 0.3 µM
IC50 [1]: 80 nM
inhibition [23]: inactive
clearance [3]: 25 mL/min/kg
unbound plasma concentration (Canis familiaris [27]): 0.94 µM
Cmax [29]: 20 µM
IC50 (Neuromedin-K receptor): 2500 nM
Cmax [30]: 7 µM
concentration (Plasma): 10 to 11 µM
inhibition [34]: inactive
IC50 (Substance-K receptor): 1300 nM
IC50 [2]: 2.5 nM
bioavailability [40]: 100%
Compound: C[C@H](NC(=O)c1c(CN2CCC(N3CCCCC3)CC2)c(-c2cccc(C(F)(F)F)c2)nc2ccccc12)c1ccccc1
Activity (Mus musculus [22]): Toxic
Activity (Aorta): Non-Toxic
Activity (Canis familiaris [24]): Toxic
Activity (Mus musculus [25]): Toxic
Activity [26]: Non-Toxic
IC50 [28]: 4500 nM
IC50 [31]: 1200 nM
Activity (Canis familiaris [32]): Toxic
Activity (Canis familiaris [33]): Non-Toxic
IC50 [35]: 40000 nM
Activity (Canis familiaris [36]): Toxic
Activity (Canis familiaris [37]): Toxic
Activity [38]: Non-Toxic
IC30 [12]: 1700 nM
IC30 [13]: 120 nM
Activity (Canis familiaris [39]): Toxic

IC50 [1]: 160 nM
IC50 [2]: 6 nM
Compound: CC[C@H](NC(=O)c1c(CN2CCC(N3CCCCC3)CC2)c(-c2cccc(C(F)(F)F)c2)nc2ccccc12)c1ccccc1

IC50 [1]: 3160 nM
IC50 [2]: 790 nM
Compound: C[C@H](NC(=O)c1c(CN2CCC(N3CCNCC3)CC2)c(-c2cccc(C(F)(F)F)c2)nc2ccccc12)c1ccccc1

IC50 [1]: 3980 nM
IC50 [2]: 630 nM
Compound: COc1cccc(-c2nc3ccccc3c(C(=O)N[C@@H](C)c3ccccc3)c2CN2CCC(N3CCCCC3)CC2)c1

IC50 [1]: 500 nM
IC50 [2]: 50 nM
Compound: O=C(NCc1ccccc1)c1c(CN2CCC(N3CCCCC3)CC2)c(-c2cccc(C(F)(F)F)c2)nc2ccccc12

IC50 [1]: > 25000 nM
IC50 [2]: > 25000 nM
Compound: C[C@H](NC(=O)c1c(CN2CCCCC2)c(-c2cccc(C(F)(F)F)c2)nc2ccccc12)c1ccccc1

The remaining lines, values behind:

Compound: O=C(NC1(c2ccccc2)CC1)c1c(CN2CCC(N3CCCCC3)CC2)c(-c2cccc(C(F)(F)F)c2)nc2ccccc12
IC50 [1]: 50 nM
IC50 [2]: 2.5 nM

Compound: O=C(NC1(c2ccccc2)CC1)c1c(CN2CCC(N3CCCCC3)CC2)c(-c2cccc(C(F)(F)F)c2)nc2cc(Br)ccc12
IC50 [1]: 40 nM
half-life [4]: 10 h
Activity [5]: Not Active
bioavailability [6]: 31%
IC50 [7]: > 25000 nM
clearance [8]: 7.3 mL/min/kg
IC50 [9]: > 25000 nM
bioavailability [10]: 53%
IC50 [11]: > 25000 nM
IC30 [12]: 10500 nM
IC30 [13]: 10500 nM
IC50 [14]: > 25000 nM
IC50 [15]: > 25000 nM
IC50 [2]: 2 nM
half-life [16]: 31 h
clearance [17]: 6.9 mL/min/kg

Compound: Cc1c(C(=O)Nc2cccc(C(F)(F)F)c2)cc(-c2ccccc2)n1CCCN1CCOCC1
IC50 [18]: 133 nM
IC50 [19]: 48 nM
IC50 [20]: 17 nM

Compound: COc1ccc(-c2nc3ccccc3c(C(=O)N[C@@H](C)c3ccccc3)c2CN2CCC(N3CCCCC3)CC2)cc1
IC50 [1]: 5010 nM
IC50 [2]: 320 nM

Compound: CCOc1ccc2c(C(=O)NC3(c4ccccc4)CC3)c(CN3CCC(N4CCCCC4)CC3)c(-c3cccc(C(F)(F)F)c3)nc2c1
IC50 [1]: 80 nM
IC50 [2]: 1.6 nM

Compound: O=C(N[C@H](c1ccccc1)C(F)(F)F)c1c(CN2CCC(N3CCCCC3)CC2)c(-c2cccc(C(F)(F)F)c2)nc2cc(Br)ccc12
IC50 [1]: 60 nM
IC50 [2]: 3.2 nM

Compound: COc1ccc2c(C(=O)NC3(c4ccccc4)CC3)c(CN3CCC(N4CCCCC4)CC3)c(-c3cccc(C(F)(F)F)c3)nc2c1
IC50 [1]: 250 nM
IC50 [2]: 2.5 nM
